pIC50: −log10 of the molar value.

Common to all, as to type: biochemical
The target in test [1] is human JAK1 (a.a. 837-1142). As to the kind of experiment: In vitro JAK kinase assay (HTRF, phosphorylation of a biotinylated peptide), JAK1. The conditions noted are these: ratio of JAK2 IC50 to JAK1 IC50, measured at 1 mM ATP. Summed up: (§1)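 N-terminal His-tagged catalytic domains, baculovirus-expressed in insect cells, phosphorylated a biotinylated peptide for 1 hr at room temperature. EDTA stop was followed by SA-APC and Eu-Py20 antibody for 40 minutes, with phosphopeptide read by HTRF.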

Test [2] deals with human JAK1 (a.a. 837-1142) (Homo sapiens, UniProt P23458). Described as above. The conditions noted are these: measured at 1 mM ATP. Summed up:
as §1

For test [3], the target named is Jak2 (a.a. 828-1132) (Homo sapiens (Human), UniProt O60674). In words: In vitro JAK kinase assay (HTRF, phosphorylation of a biotinylated peptide), JAK2. The conditions noted are these: measured at 1 mM ATP. Summed up: as §1
Jak2 (a.a. 828-1132), sequence (O60674 828-1132): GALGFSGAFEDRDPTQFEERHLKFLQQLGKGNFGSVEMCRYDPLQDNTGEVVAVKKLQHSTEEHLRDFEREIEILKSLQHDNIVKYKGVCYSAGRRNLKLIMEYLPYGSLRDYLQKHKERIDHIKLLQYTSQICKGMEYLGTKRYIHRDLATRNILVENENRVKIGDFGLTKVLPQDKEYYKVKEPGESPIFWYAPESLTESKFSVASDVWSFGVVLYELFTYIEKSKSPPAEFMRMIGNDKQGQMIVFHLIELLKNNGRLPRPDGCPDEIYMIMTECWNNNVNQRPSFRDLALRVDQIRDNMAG

As to `N#CCC1(n2cc(-c3ncnc4[nH]ccc34)cn2)CN(C2CCN(C(=O)Nc3c(F)cccc3F)CC2)C1` [Example 156, 4-{3-(cyanomethyl)-3-[4-(7H-pyrrolo[2,3-d]pyrimidin-4-yl)-1H-pyrazol-1-yl]azetidin-1-yl}-N-(2,6-difluorophenyl)piperidine-1-carboxamide], the “IC50 Ratio JAK2/JAK1” value in test [1] is listed as 11.2. Moreover, the pIC50 in test [2] is not below 8.30; in test [3], 7.30 to 8.00.
Turning to `N#CCC1(n2cc(-c3ncnc4[nH]ccc34)cn2)CN(C2CCN(C(=O)Nc3ccccc3C(F)(F)F)CC2)C1` [Example 157, 4-{3-(cyanomethyl)-3-[4-(7H-pyrrolo[2,3-d]pyrimidin-4-yl)-1H-pyrazol-1-yl]azetidin-1-yl}-N-[2-(trifluoromethyl)phenyl]piperidine-1-carboxamide], the “IC50 Ratio JAK2/JAK1” value in test [1] was 14.8. For the same compound, the pIC50 is not below 8.30 in test [2] and 7.00 to 7.30 in test [3].
On the same counts, the results for `N#CCC1(n2cc(-c3ncnc4[nH]ccc34)cn2)CN(C2CCN(C(=O)Nc3ccccc3OC(F)(F)F)CC2)C1` [Example 158, 4-{3-(cyanomethyl)-3-[4-(7H-pyrrolo[2,3-d]pyrimidin-4-yl)-1H-pyrazol-1-yl]azetidin-1-yl}-N-[2-(trifluoromethoxy)phenyl]piperidine-1-carboxamide] are 12.0, not below 8.30 and 7.30 to 8.00.
On the same counts, the results for `N#CCC1(n2cc(-c3ncnc4[nH]ccc34)cn2)CN(C2CCN(C(=O)Nc3cscc3Br)CC2)C1` [Example 159, N-(4-bromo-3-thienyl)-4-{3-(cyanomethyl)-3-[4-(7H-pyrrolo[2,3-d]pyrimidin-4-yl)-1H-pyrazol-1-yl]azetidin-1-yl}piperidine-1-carboxamide] are 15.0, not below 8.30 and 7.30 to 8.00.
On the same counts, the results for `N#CCC1(n2cc(-c3ncnc4[nH]ccc34)cn2)CN(C2CCN(C(=O)Nc3c(Cl)cccc3Cl)CC2)C1` [Example 160, 4-{3-(cyanomethyl)-3-[4-(7H-pyrrolo[2,3-d]pyrimidin-4-yl)-1H-pyrazol-1-yl]azetidin-1-yl}-N-(2,6-dichlorophenyl)piperidine-1-carboxamide] are 12.1, not below 8.30 and 7.30 to 8.00.
With `Cc1cccc(Cl)c1NC(=O)N1CCC(N2CC(CC#N)(n3cc(-c4ncnc5[nH]ccc45)cn3)C2)CC1` [Example 161, N-(2-chloro-6-methylphenyl)-4-{3-(cyanomethyl)-3-[4-(7H-pyrrolo[2,3-d]pyrimidin-4-yl)-1H-pyrazol-1-yl]azetidin-1-yl}piperidine-1-carboxamide], in test [1], the “IC50 Ratio JAK2/JAK1” value is 12.1. For the same compound, the pIC50 in test [2] is not below 8.30; in test [3], 7.30 to 8.00.
On to `N#CCC1(n2cc(-c3ncnc4[nH]ccc34)cn2)CN(C2CCN(C(=O)Nc3ccc(F)cc3Cl)CC2)C1` [Example 162, N-(2-chloro-4-fluorophenyl)-4-{3-(cyanomethyl)-3-[4-(7H-pyrrolo[2,3-d]pyrimidin-4-yl)-1H-pyrazol-1-yl]azetidin-1-yl}piperidine-1-carboxamide], for which, in test [1], the “IC50 Ratio JAK2/JAK1” value came to 13.6. Moreover, the pIC50 is not below 8.30 in test [2] and 7.30 to 8.00 in test [3].
The corresponding values for `N#CCC1(n2cc(-c3ncnc4[nH]ccc34)cn2)CN(C2CCN(C(=O)Nc3ccccc3Cl)CC2)C1` [Example 163, N-(2-chlorophenyl)-4-{3-(cyanomethyl)-3-[4-(7H-pyrrolo[2,3-d]pyrimidin-4-yl)-1H-pyrazol-1-yl]azetidin-1-yl}piperidine-1-carboxamide] are 12.0, not below 8.30 and 7.30 to 8.00.
On the same counts, the results for `N#CCC1(n2cc(-c3ncnc4[nH]ccc34)cn2)CN(C2CCN(C(=O)Nc3ccccc3OC(F)F)CC2)C1` [Example 164, 4-{3-(cyanomethyl)-3-[4-(7H-pyrrolo[2,3-d]pyrimidin-4-yl)-1H-pyrazol-1-yl]azetidin-1-yl}-N-[2-(difluoromethoxy)phenyl]piperidine-1-carboxamide] are 13.3, not below 8.30 and 7.30 to 8.00.
The corresponding values for `N#CCC1(n2cc(-c3ncnc4[nH]ccc34)cn2)CN(C2CCN(C(=O)Nc3cnccc3C(F)(F)F)CC2)C1` [Example 165] are 10.4, 7.70 to 8.30 and 7.00 to 7.30.
On to `N#CCC1(n2cc(-c3ncnc4[nH]ccc34)cn2)CN(C2CCN(C(=O)Nc3cccc(C(F)(F)F)c3)CC2)C1` [Example 166, 4-{3-(cyanomethyl)-3-[4-(7H-pyrrolo[2,3-d]pyrimidin-4-yl)-1H-pyrazol-1-yl]azetidin-1-yl}-N-[3-(trifluoromethyl)phenyl]piperidine-1-carboxamide], for which the “IC50 Ratio JAK2/JAK1” value in test [1] is reported as 5.5. The pIC50 in test [2] is not below 8.30; in test [3] it was not below 8.00.
On to `N#CCC1(n2cc(-c3ncnc4[nH]ccc34)cn2)CN(C2CCN(C(=O)Nc3ccc(C(F)(F)F)cc3)CC2)C1` [Example 167, 4-{3-(cyanomethyl)-3-[4-(7H-pyrrolo[2,3-d]pyrimidin-4-yl)-1H-pyrazol-1-yl]azetidin-1-yl}-N-[4-(trifluoromethyl)phenyl]piperidine-1-carboxamide], for which the “IC50 Ratio JAK2/JAK1” value in test [1] is reported as 2.0. The pIC50 was not below 8.30 in test [2] and not below 8.00 in test [3].
Turning to `Cc1ccc(Cl)cc1NC(=O)N1CCC(N2CC(CC#N)(n3cc(-c4ncnc5[nH]ccc45)cn3)C2)CC1` [Example 168, N-(5-chloro-2-methylphenyl)-4-{3-(cyanomethyl)-3-[4-(7H-pyrrolo[2,3-d]pyrimidin-4-yl)-1H-pyrazol-1-yl]azetidin-1-yl}piperidine-1-carboxamide], in test [1], the “IC50 Ratio JAK2/JAK1” value was 2.6. In addition, the pIC50 in test [2] is not below 8.30; in test [3], not below 8.00.
The corresponding values for `N#CCC1(n2cc(-c3ncnc4[nH]ccc34)cn2)CN(C2CCN(C(=O)Nc3ccccc3F)CC2)C1` [Example 169, 4-{3-(cyanomethyl)-3-[4-(7H-pyrrolo[2,3-d]pyrimidin-4-yl)-1H-pyrazol-1-yl]azetidin-1-yl}-N-(2-fluorophenyl)piperidine-1-carboxamide] are 5.5, not below 8.30 and 7.30 to 8.00.
On to `N#CCC1(n2cc(-c3ncnc4[nH]ccc34)cn2)CN(C2CCN(C(=O)Nc3cccc(C(F)(F)F)c3F)CC2)C1` [Example 170, 4-{3-(cyanomethyl)-3-[4-(7H-pyrrolo[2,3-d]pyrimidin-4-yl)-1H-pyrazol-1-yl]azetidin-1-yl}-N-[2-fluoro-3-(trifluoromethyl)phenyl]piperidine-1-carboxamide], for which the “IC50 Ratio JAK2/JAK1” value in test [1] was 6.9. Also, the results for the pIC50 in test [2] and in test [3] were not below 8.30 and 7.30 to 8.00, respectively.
On the same counts, the results for `N#CCC1(n2cc(-c3ncnc4[nH]ccc34)cn2)CN(C2CCN(C(=O)Nc3ccc(F)cc3F)CC2)C1` [Example 171, 4-{3-(cyanomethyl)-3-[4-(7H-pyrrolo[2,3-d]pyrimidin-4-yl)-1H-pyrazol-1-yl]azetidin-1-yl}-N-(2,4-difluorophenyl)piperidine-1-carboxamide] are 7.5, not below 8.30 and 7.30 to 8.00.
In the case of `N#CCC1(n2cc(-c3ncnc4[nH]ccc34)cn2)CN(C2CCN(C(=O)Nc3cc(F)cc(F)c3F)CC2)C1` [Example 173, 4-{3-(cyanomethyl)-3-[4-(7H-pyrrolo[2,3-d]pyrimidin-4-yl)-1H-pyrazol-1-yl]azetidin-1-yl}-N-(2,3,5-trifluorophenyl)piperidine-1-carboxamide], the “IC50 Ratio JAK2/JAK1” value in test [1] stood at 5.7. The values for the pIC50 in test [2] and in test [3] were 7.70 to 8.30 and 7.30 to 8.00, respectively.
On the same counts, the results for `N#CCC1(n2cc(-c3ncnc4[nH]ccc34)cn2)CN(C2CCN(C(=O)Nc3cc(F)ccc3F)CC2)C1` [Example 174, 4-{3-(cyanomethyl)-3-[4-(7H-pyrrolo[2,3-d]pyrimidin-4-yl)-1H-pyrazol-1-yl]azetidin-1-yl}-N-(2,5-difluorophenyl)piperidine-1-carboxamide] are 7.1, not below 8.30 and not below 8.00.
On to `N#CCC1(n2cc(-c3ncnc4[nH]ccc34)cn2)CN(C2CCN(C(=O)Nc3cc(F)cc(F)c3)CC2)C1` [Example 175, 4-{3-(cyanomethyl)-3-[4-(7H-pyrrolo[2,3-d]pyrimidin-4-yl)-1H-pyrazol-1-yl]azetidin-1-yl}-N-(3,5-difluorophenyl)piperidine-1-carboxamide], for which the “IC50 Ratio JAK2/JAK1” value in test [1] was 3.6. Besides, the pIC50 was not below 8.30 in test [2] and not below 8.00 in test [3].
Turning to `N#CCC1(n2cc(-c3ncnc4[nH]ccc34)cn2)CN(C2CCN(C(=O)Nc3ccc(F)c(F)c3)CC2)C1` [Example 176, 4-{3-(cyanomethyl)-3-[4-(7H-pyrrolo[2,3-d]pyrimidin-4-yl)-1H-pyrazol-1-yl]azetidin-1-yl}-N-(3,4-difluorophenyl)piperidine-1-carboxamide], in test [1], the “IC50 Ratio JAK2/JAK1” value is on record as 5.1. In addition, the pIC50 is not below 8.30 in test [2] and not below 8.00 in test [3].
In the case of `N#CCC1(n2cc(-c3ncnc4[nH]ccc34)cn2)CN(C2CCN(C(=O)Nc3cccc(Cl)c3F)CC2)C1` [Example 177, N-(3-chloro-2-fluorophenyl)-4-{3-(cyanomethyl)-3-[4-(7H-pyrrolo[2,3-d]pyrimidin-4-yl)-1H-pyrazol-1-yl]azetidin-1-yl}piperidine-1-carboxamide], the “IC50 Ratio JAK2/JAK1” value in test [1] is 8.5. Also, the pIC50 in test [2] was not below 8.30; in test [3] it was not below 8.00.

For the origin of these results see patent publication US9999619B2, “Piperidin-4-yl azetidine derivatives as JAK1 inhibitors” (Incyte Corporation, priority 2010, dated 2018).
